Measured values published in patent US20240139149A1, “THERAPEUTIC USES OF UROLITHIN DERIVATIVES” (Vandria SA, priority 2022, published 2024).

Legend:
human T lymphocytes = assay: Proportion of human T memory stem cells (Tscm); type: cell-based
Description: Human peripheral blood mononuclear cells were purified with a Ficoll-Paque (GE healthcare) gradient. T cells were enriched with EasySep Human T Cell Isolation Kit (StemCell) and activated with dynabead Human T-Activator CD3/CD28 for T Cell Expansion and Activation Kit (11131D; ThermoFisher Scientific). Cells were activated with compound 66 at the indicated concentration or DMSO. Tscm cells are identified and counted based on the expression of five different markers: CD45RA^+CCR7^HiCD62L^+CD95^+CD8^+.
Human peripheral blood mononuclear cells were purified with a Ficoll-Paque (GE healthcare) gradient. T cells were enriched with EasySep Human T Cell Isolation Kit (StemCell) and activated with dynabead Human T-Activator CD3/CD28 for T Cell Expansion and Activation Kit (11131D; ThermoFisher Scientific). Cells were activated with the 77 at 400 nM or DMSO.
Staining was performed as described in Example 15.
(§1) Flow cytometry and analysis was performed as described in Example 14.

mouse T lymphocytes [1] = assay: Mitochondrial content (Mitotracker positive cells) in mouse T lymphocytes; type: cell-based; conditions: 2 μM, 72 h; for percentage of Mitotracker positive cells: DMSO 44%
Description: Splenic murine T cells were isolated from mice aged 6-20 weeks by negative selection with EasySep mouse T cell isolation kit (Stem cell) according to the manufacturer's instructions. T cell activation was initiated using CD3/CD28 activation beads (11456D; ThermoFisher Scientific) at a ratio of 25 μl dynabeads per 0.5×10^6 T-cells. Cells were activated with test compounds at 2 μM or DMSO in T cell activation Medium (RPMI (ThermoFisher Scientific) 10% FBS (South America origin), 10 mM Hepes (Sigma), 1× Non-Essential Amino Acid, 1 mM Sodium Pyruvate, 50 μM β-Mercaptoethanol, 100 U/ml penicillin, 100 μg/ml streptomycin and 2 mM Glutamax (ThermoFisher Scientific) for 72 h. For subsequent analysis, activating beads were magnetically removed prior staining.
For flow cytometric analysis of mitochondria 500 μl of Mitotracker Red (200 nM; ThermoFisher) was applied followed by surface staining.
Cell doublets and cells debris were excluded from the analysis by gating FSC-A vs FSC-H followed by SSC-A vs SSC-H dot plots and FSC-A vs SSC-A dot plots, respectively. eFluor 780 highly positive cells, i.e, dead cells, were gated out of the analysis. Data was acquired on Canto II (BD), Fortessa (BD) and Aurora (Cytek) cytometers and analyzed with FlowJo.

APTK-OVA tumors = assay: Adoptive transfer of UA-conditioned OT-1 T cells into Rag1−/− mice; type: in vivo, mouse; conditions: seven days after transfer into Rag1−/− mice, T cells cultured 48 hours with UA
Description: For adoptive cell transfer, purified splenic T cell from OT1 mice were isolated and activated using αCD3/αCD28 stimulation beads for 48 h. After magnetic bead removal, 1×10^6 T of activated T cell were intravenously injected into Rag1−/− recipients. To study survival of transferred T cells, stimulated OT-1 T cells were injected into mice without tumors. Subsequently, after 7 days, spleens were isolated and splenocytes were stained for the CD8+ subsets as described below. To understand antitumor immunity conferred by transferred OT-1 lymphocytes, cells were injected into mice carrying APTK-OVA tumors 10 days after subcutaneous organoid transplantation. Tumor growth was assessed as described above. Mice were kept under regular chow food for the T cell adoptive transfer experiment and sacrificed collectively when maximum tumor diameter extended 1.5 cm.
Tumors were minced and digested with Tumor & Tissue Dissociation Reagent (BD Horizon) for 30 min. The remaining organ pieces were filtered through a 70 µm cell strainer. Cells were then washed with PBS 1% BSA and 2 mM EDTA. Immune cells were enriched on a 30%/40%/75% Percoll gradient after a 1700 rpm 17 min centrifugation. Then, tumor immune filtrates or activated T cells were stained with Fixable Viability Dye-eF780 (65-0865-14; eBioscience), αCD45-FITC (30-F11; 11-0451-85; eBioscience), αCD11b-BV650 (M1/70; 56340; BD) α-CD11c-BV785 (HL3; 563735; BD), aLy6G-BV605 (53-6.7; 563005; BD), aLy6C-AF700 (HK1.4; 128024; Biolegend), aF4/80-PE (BM8; 12-4801-82, eBioscience), aPD-L1-PECy7 (MIH5; 25-5982-80, eBioscience); or with Fixable Viability Dye-eF780 (ebioscience), αCD45-BV786 (30-F11; 564225; BD), αCD4-BUV496 (GK1.5; 564667; BD), αCD8-BV605 (100744; Biolegend), aPD1-APC (J43; 17-9985-82; eBioscience), aTIM-3-PECy7 (RMT3-23; 119715; Biolegend), aCTLA4-PE (UC10-4B9; 106305; Biolegend) and aLag3-BV421 (C9B7W; 125221, Biolegend); or with Fixable Viability Dye-eF780 (eBioscience), αCD4-FITC (H129.19; 553650; BD), αCD8-APC (53-6.7; 17-0081-83; eBioscience), αCD44-AF400 (IM7; 103026; Biolegend), αCD62L-BV785 (MEL-14; 104440; Biolegend), αSca-1-PerCP-Cy5.5 (D7; 45-5981-82; eBioscience), αCD95-PE (Jo2; 554258; BD); or with Fixable Viability Dye-eF780 (eBioscience), αCD8-BV650 (53-6.7; 563234; BD), αCD4-BUV496 (GK1.5; 564667; BD), αCD127-APC (A7R34; 17-1271-82; eBioscience), αCD95-FITC (SA367H8;152605; Biolegend), αCD44-AF400 (IM7; 103026; Biolegend), αCD62L-BV785 (MEL-14; 104440; Biolegend), αSca-1-PerCP-Cy5.5 (D7; 45-5981-82; eBioscience) followed by intracellular staining of aTCF1-PE (S33-966; 564217; BD), or PGC-1α (sc-518025; D-5; santa cruz), or aCyclinD1 (MA5-28534, DCS-6; Invitrogen) with transcription factor buffer set kit (BD Biosciences). To study cytokine expression, tumor immune infiltrates were stimulated ex vivo with 20 ng/mL PMA and […] Ionomycin (Sigma) for 3 h in T cell activation medium with Brefeldin A (Biolegend). For T cell in vitro activation experiments over several days, Brefeldin A was added to the medium for the last 3 hours. Cells were then stained with Fixable Viability Dye-eF780 (eBioscience), αCD8-PeCy7 (53.6-7; 100722; Biolegend), αCD4-AF700 (GK1.5; 100429; Biolegend), and intracellular staining for cytokine assessment was performed with BD Cytofix/Cytoperm (BD) with 20 min fixation and overnight incubation with αGranzyme B-FITC (GB11; 515403; Biolegend), αIFNγ-PerCPCy5.5 (XMG1.2; 45-7311-82; eBioscience) and αTNFa-BV711 (MP6-XT22; 563944; BD). For flow cytometric analysis of mitochondria and lysosomes 500 μl of Mitotracker Red (200 nM; ThermoFisher) or Lysotracker Red DND-99 (75 nM; ThermoFisher) were applied followed by surface staining. To study changes in mitochondrial membrane potential, Mitoprobe TMRM kit (ThermoFisher) was used according to the manufacturer's instructions. Cell proliferation was assessed by CellTrace Violet (Invitrogen, C34557) at a concentration of […] according to manufacturer's instructions. […]

[2] = system: rat model of heart failure; assay: Rat model of heart failure after myocardial infarction (LAD ligation), echocardiography; type: in vivo
Description: Generation of a rat model of cardiac impairment following myocardial infarction Fifty (50) Wistar male rats from Janvier Labs (France), 6-week-old (200-224 g on the day of arrival), were included in this study. Acclimatization of animals lasted at least 5 days. During the study, animals had free access to food and drinking water ad libitum.
Myocardial infarction (MI) was induced by chronic left anterior descending coronary artery (LAD) ligation performed at DO. Rats were anesthetized with an intraperitoneal (IP) injection of Medetomidine (0.5 mg/kg) and Ketamine (50 mg/kg), intubated and ventilated at 10 mL/kg tidal volume and 70-80 cycles/min. Body temperature was maintained between 36.5° C. and 37.5° C. via a thermoregulated heating pad connected to a rectal probe. A left lateral thoracotomy was carefully performed so as to expose the heart. Then, a suture was placed around the LAD (4/0 Silk, Ethicon), around 2 mm below the left atrium and close to the interventricular junction, in order to obtain infarct size (IS) near 40% of the total left ventricular (LV) area. Chest was closed, air was expelled from the rib cage to avoid pneumothorax and quick reanimation was performed using atipamezole hydrochloride (IM, 0.5 mg/mL, Zoetis). A peri-operative care of the animals was performed during the surgery: • Pre-operative care by one carprofen injection (SC, 5 mg/kg, Pfizer) and one lidocaine injection on the site of incision (SC, 4 mg/kg, Vetoquinol). • Post-operative care: 3 injections of buprenorphine (SC, 0.01 mg/kg, Axience) administered after awakening and during the first 24 hours after the surgery.
Rats underwent transthoracic echocardiographic examination in order to assess cardiac morphology and function in a noninvasively way. […]
Left ventricle (LV) function was assessed using ejection fraction (EF), calculated as follow: […]
Statistical analysis was performed with the Graphpad 6 software. […] First, differences were assessed between Sham/Vehicle and MI/Vehicle using an unpaired ttest followed by the appropriate post-hoc test. […]

mouse T lymphocytes [3] = assay: Proportion of mouse T memory stem cells (Tscm); type: cell-based; conditions: 2 μM, 72 h
Description: T cells were isolated and stimulated as described in Example 14.
Tscm represent a subset of minimally differentiated T cells, which share a CD44^loCD62L^hi phenotype with naïve T cells, but are phenotypically distinct by expressing high levels of Sca1 (Gattinoni et al., 2009). Tscm are therefore identified as CD44^−CD62L^+Sca1^hi cells.
as §1

[4] = MI rats, 0.5 mg/kg oral gavage, Month 2, M-mode, vs MI/Vehicle

Structure (SMILES)	increase in Tscm proportion of CD8+ lymphocytes (human T lymphocytes; 400 nM, 72 h, vs DMSO) [fold]	increase in the percentage of Mitotracker positive cells vs DMSO (mouse T lymphocytes [1]) [%]	percentage of Mitotracker positive cells (mouse T lymphocytes [1]) [%]	number of engrafted CD8+ T cells (APTK-OVA tumors)	LV systolic dysfunction induced by MI ([2]; 0.5 mg/kg, 2 months after LAD ligation)	ejection fraction (EF) [2, 4]	fractional shortening (FS) [2, 4]	Tscm proportion of CD3+ lymphocytes (human T lymphocytes; indicated concentration vs DMSO)	increase in the percentage of Tscm in CD8+ cells vs DMSO (mouse T lymphocytes [3]) [%]	percentage of Tscm in CD8+ cells (mouse T lymphocytes [3]; DMSO 16.7%) [%]
CN1C(=O)Cc2cc(O)ccc2-c2ccc(O)cc21 [compound 77, 3,9-dihydroxy-5-methyl-5,7-dihydro-6H-dibenzo[b,d]azepin-6-one]	~3	43.4	63.1	–	–	–	–	–	–	–
O=c1oc2cc(O)ccc2c2ccc(O)cc12 [Urolithin A]	–	–	–	significantly higher	–	–	–	–	–	–
O=C1OCc2cc(O)ccc2-c2ccc(O)cc21 [compound 66, 3,9-dihydroxydibenzo[c,e]oxepin-5(7H)-one]	–	27.5	56.1	–	able to prevent	significant increases	significant increases	significant increase	69	28.2
